Measured values published in patent US10450613B2, “EGFR/NEDD9/TGF-β interactome and methods of use thereof for the identification of agents having efficacy in the treatment of hyperproliferative disorders” (Fox Chase Cancer Center, priority 2007, dated 2019).

Tests used:
HCT116 cells [1] = assay: Apoptosis after drug combination treatment; assay type: cell-based, human; conditions: HCT116, 72 hours (FIG. 17C)
A431 cells [2] = assay: Drug synergy testing (Chou-Talalay CI), viability; assay type: cell-based, human; conditions: 72 hours, CI <1 synergy, <0.5 strong synergy
Method: (§1) The coefficient of interaction (CI) between pharmacological inhibitors was established by the Chou-Talalay method (Chou et al., (1984) Adv Enzyme Regul 22:27). The software package CalcuSyn (BioSoft, UK) was used to automate calculations. Briefly, for each drug tested, an IC50 curve was established in each cell line, and used to select combination doses of drugs for subsequent synergy tests. 3500 cells were plated per well in 96-well plates. After 24 hours, cells were treated with serial dilutions of individual inhibitors, or combinations of two inhibitors maintained at a constant molar ratio. After 72 hours incubation, cell viability was measured using either CellTiter Blue (Promega, USA) or a WST1 assay (Roche Applied Science, Indianapolis, Ind.). The CI values for each dose and corresponding cytotoxicity were expressed as the fraction affected (Fa) and were calculated using CalcuSyn computer software and presented as Fa-CI plots. CI values <1 indicate synergy, and <0.5 strong synergy, between the two agents in producing cytotoxic effect.

HCT116 cells [3] = assay: Drug synergy testing (Chou-Talalay CI), viability; assay type: cell-based, human
Method: as §1

A431 cells [4] = assay: Phosphoproteomic analysis, Proteome Profiler array of 46 signaling proteins; assay type: cell-based, human
Method: For phosphoproteomic analysis, we used the Proteome Profiler™ array (R&D Systems, Minneapolis, Minn., USA) according to the manufacturer's protocol. In brief, A431 cells were grown for 24 hours in DMEM supplemented with L-glutamine and 1% FBS to 70% confluency. Cells then were either serum starved overnight or remained in the same media. Serum starved and cells incubated in 1% serum were either left untreated or incubated with IC30 concentrations of inhibitors for 3 hours. […] Serum-starved cells were subsequently stimulated with recombinant EGF (Sigma-Aldrich, USA) at 15 ng/mL for 15 minutes before lysis. For a subset of phospho-proteins, phosphorylation status was confirmed by Western blot. Quantification was done using ImageJ software.

cancer cells = assay: Drug synergy testing (Chou-Talalay CI), cell line not stated (FIG. 17B); assay type: cell-based
Method: as §1

[5] = tested on: EGFR, ERK1/2 and AKT phosphorylation; assay: Western analysis of EGFR pathway after inhibitor treatment and EGF stimulation; assay type: cell-based, human
[6] = A431, serum starved, EGF-stimulated (FIG. 19A)
[7] = PHA-680632 alone, transient EGF stimulation

CCc1cccc(CC)c1NC(=O)N1Cc2n[nH]c(NC(=O)c3ccc(N4CCN(C)CC4)cc3)c2C1 [PHA-680632]
Frequency of apoptosis, combination with erlotinib (HCT116 cells [1]): increases apoptosis
Synergy with erlotinib in reducing viability (Chou-Talalay CI) (A431 cells [2]): synergized strongly
Cell viability, combination with erlotinib (HCT116 cells [3]; HCT116 (FIG. 17D)): Dose-dependent inhibition
Synergy with erlotinib in reducing viability (Chou-Talalay CI) (HCT116 cells [3]; HCT116, 72 hours, CI <1 synergy, <0.5 strong synergy): synergized strongly
Phosphorylation of 46 signaling proteins, combination of erlotinib and PHA-680632 (A431 cells [4]; A431, 1% serum steady state, erlotinib 0.5 μM plus PHA 0.1 μM (FIG. 19B)): significant reduction in activity of STAT3, and a group of Src kinases
Phosphorylation of 46 signaling proteins, combination of erlotinib and PHA-680632 (A431 cells [4]; [6]): specific inhibition of a subset of proteins
Phosphorylation of 46 signaling proteins, single agent (A431 cells [4]; [6]): little effect
Synergy with cetuximab (Chou-Talalay CI) (cancer cells): synergized
S473-AKT phosphorylation, combination with erlotinib ([5]; 3 hrs inhibitors then EGF, vs either agent alone (FIGS. 17H, 18; HCT116)): very significantly reduced
EGFR expression, autophosphorylation, and activation [5, 7]: did not inhibit
ERK1/2 or AKT phosphorylation [5, 7]: little effect
